According to patent US20080057010A1, “METHOD FOR SKIN CARE” (NULIV SCIENCE LTD., priority 2006, published 2008):

Experiments:
Type in all cases: cell-based, human
[1] = test system: HaCaT cells; assay: Proline uptake assay in HaCaT cells; conditions: 0.1 μM; for Uptake rate (proline): 48 h treatment; for Percentage (%) of control proline uptake: control = 100.00
Protocol: The proline uptake assay was carried out as described (Biochim Biophys Acta. 1104:283-292, 1992). Briefly, HaCaT cells were seeded into a 24-well plate at a density of 3×10^4 cells/well and cultured for 24 h. The cells were then treated in the absence (solvent control) or presence of various concentrations of astragalosides or crude extracts from Astragalus membranaceus for another 48 h. The treated cells were then washed once with PBS and incubated in amino acid free medium (AAFM) for another 30 min. The treated cells were them replaced with fresh AAFM containing 50 μg/ml of ascorbate and total of 0.5 mM of L-proline containing 1 μCi [^3H] Proline (American Radiolabelled Chemicals Inc, ARC, St. Louis, Mo., USA). At designated time interval, the cells were washed with AAFM containing cold proline and then lysed in 200 μL of 2% SDS. Cell lysates were centrifuged at 15000 g for 15 min. Intracellular proline uptaken by the cells was determined by transferring 10 μL of the cell lysate to filter-bottomed UniFilter plates (Perkim-Elmer) and counted. Protein concentration of the samples were measured using the BCA protein assay kit as described above. Proline accumulated in the cells was calculated and normalized to protein concentration and uptake rate was expressed as nmole of L-proline per minute per milligram of cell protein ([…]).

[2] = test system: hyaluronic acid (HA); assay: HA measurement in culture medium of HaCaT cells (HA-ELISA); conditions: relative to 0 = 1.00
Protocol: HA measurement was carried out as described (BBRC, 2004, 316: 348-355). Briefly, HaCaT or HDF cells were seeded and incubated in 24-well plates to confluency. Immediately before experiments, cells were washed twice with serum-free medium to completely remove HA accumulated during cell growth. The cells were then cultured with or without different compounds in 0.5 ml serum-free medium for 48 h. At the indicated time, aliquots of medium were removed, centrifuged at 15000 g for 5 min, and supernatants were analyzed for HA using an enzyme-linked immunosorbent assay (ELISA) kit (Echelon Bioscience, Salt Lake, Utah).
Results shown represent the fold of induction of the astragalosides on hyaluronic acid expression in HaCaT cells. The concentrations of astragalosides used were 0, 1, or 10 μM (unless indicated otherwise) for astragaloside pure compounds; were 0, 0.5, 1, 2.5, 5, 10, 40 μg/mL for the butanol fraction (unless indicated otherwise); and were 0, 1, 10, 40 μg/mL for the water insoluble fraction (unless indicated otherwise). The cells were treated with the indicated compounds for 24 h before harvested for analysis of secreted hyaluronic acid in culture medium using HA-ELISA kit.

[3] = test system: HA synthase 2 (HAS2); assay: Quantitative analysis of HA synthase 2 (HAS2) transcripts in HaCaT cells (qRT-PCR); conditions: 0.1 μM, qRT-PCR normalized to GAPDH, relative to 0 = 1.00
Protocol: Relative levels of HAS2 expression in HaCaT cells were determined by real-time quantitative reverse transcriptase polymerase chain reaction (qRT-PCR). Total RNAs were isolated from the cultured human cells using TRIzol reagent (Invitrogen, Irvine, Calif., USA). 1 μg of RNA was reverse transcribed, at 37° C. for 60 min in a 20 μl transcription mixture containing dNTP (0.5 mM), oligo-dT (0.1 μg), RNasin (10 units), 1×PCR buffer (20 mM Tris-HCl, pH 8.3; 2.5 mM MgCl2; 50 mM KCl), and 100 units of Moloney murine leukemia virus reverse transcriptase (Invitrogen). The cDNA product was phenol extracted, ethanol precipitated, and resuspended in 20 μl TE (20 mM Tris-Cl, pH 8.0 and 1 mM EDTA). qRT-PCR was performed using the Applied Biosystem 7300 system and pre-developed Taqman Gene Expression Assays (Applied Biosystems, Foster City, Calif., USA). The reaction mixtures (20-μl total volume) contained 2 μl of serially diluted cDNA, 10 μl of Taqman Universal PCR Master Mix (Applied Biosystems), and 1 μl of either human HAS-2 gene (assay ID Hs 00193435_ml, Applied Biosystems), or GAPDH primer mix (assay ID Hs99999905_ml, Applied Biosystems). The reactions were amplified as follows: 50° C. for 2 min and 95° C. for 10 min, followed by 40 cycles of 95° C. for 1 min and 65° C. for 1 min. Two independent triplicate experiments were performed for the selected genes. Relative quantitation was performed using the 7300 software (Applied Biosystems, Foster City, Calif., USA). Expression of HAS-2 was normalized to GAPDH expression in each sample.

Row | Compound | Uptake rate (proline) [1] | Percentage (%) of control proline uptake [1] | HA in medium (fold of induction) ([2]; 1 μM) | HA in medium (fold of induction) ([2]; 10 μM) | HAS-2 in cell [3]
1 | CC(=O)O[C@H]1[C@H](O[C@H]2CC[C@]34C[C@]35CC[C@]3(C)[C@@H]([C@@]6(C)CC[C@@H](C(C)(C)O)O6)[C@@H](O)C[C@@]3(C)[C@@H]5C[C@H](O[C@@H]3O[C@H](CO)[C@@H](O)[C@H](O)[C@H]3O)[C@H]4C2(C)C)OC[C@@H](O)[C@@H]1O [AS2, astragaloside II] | 0.9770 ± 0.1119 pmol/mg/min | 141.52% | 1.98 | 1.31 | 2.73
2 | CC(C)(O)[C@@H]1CC[C@](C)([C@H]2[C@@H](O)C[C@@]3(C)[C@@H]4C[C@H](O)[C@H]5C(C)(C)[C@@H](O[C@@H]6OC[C@@H](O)[C@H](O)[C@H]6O[C@@H]6O[C@H](CO)[C@@H](O)[C@H](O)[C@H]6O)CC[C@@]56C[C@@]46CC[C@]23C)O1 [AS3, astragaloside III] | 0.7213 ± 0.0090 pmol/mg/min | 104.48% |  |  | 
3 | CC(C)(O)[C@@H]1CC[C@](C)([C@H]2[C@@H](O)C[C@@]3(C)[C@@H]4C[C@H](O[C@@H]5O[C@H](CO)[C@@H](O)[C@H](O)[C@H]5O)[C@H]5C(C)(C)[C@@H](O[C@@H]6OC[C@@H](O)[C@H](O)[C@H]6O)CC[C@@]56C[C@@]46CC[C@]23C)O1 [AS4, astragaloside IV] | 0.7628 ± 0.1015 pmol/mg/min | 110.50% | 2.27 | 1.31 | 1.41
4 | CC(C)(O)[C@@H]1CC[C@](C)([C@H]2[C@@H](O)C[C@@]3(C)[C@@H]4C[C@H](O[C@@H]5O[C@H](CO)[C@@H](O)[C@H](O)[C@H]5O)[C@H]5C(C)(C)[C@@H](O[C@@H]6OC[C@@H](O)[C@H](O)[C@H]6O[C@@H]6O[C@H](CO)[C@@H](O)[C@H](O)[C@H]6O)CC[C@@]56C[C@@]46CC[C@]23C)O1 [AS6, astragaloside VI] |  |  | 1.13 | 1.38 | 
5 | CC(=O)O[C@H]1[C@H](O[C@H]2CC[C@]34C[C@]35CC[C@]3(C)[C@@H]([C@@]6(C)CC[C@@H](C(C)(C)O)O6)[C@@H](O)C[C@@]3(C)[C@@H]5C[C@H](O[C@@H]3O[C@H](CO)[C@@H](O)[C@H](O)[C@H]3O)[C@H]4C2(C)C)OC[C@@H](OC(C)=O)[C@@H]1O [isoAS1, isoastragaloside I] |  |  |  |  | 1.12
6 | CC(=O)O[C@@H]1[C@@H](O)[C@H](O[C@H]2CC[C@]34C[C@]35CC[C@]3(C)[C@@H]([C@@]6(C)CC[C@@H](C(C)(C)O)O6)[C@@H](O)C[C@@]3(C)[C@@H]5C[C@H](O[C@@H]3O[C@H](CO)[C@@H](O)[C@H](O)[C@H]3O)[C@H]4C2(C)C)OC[C@H]1O [isoAS2, isoastragaloside II] |  |  |  |  | 1.28
7 | astragaloside I [AS1] | 0.8627 ± 0.0741 pmol/mg/min | 124.97% | 1.45 | 1.36 | 
